Laboratory results taken from patent US20030171617A1, “3,4-Dihydroxymandelic acid alkylamides and use thereof” (priority 2000, published 2003).

Columns and labels:
[1] = DPPH (1,1-diphenyl-2-picrylhydrazyl) test for the removal of free radicals; assay type: physicochemical; details: c(test compound)/c(DPPH); DPPH 100 μmol/l in methanol; absorption at 515 nm
Description: The activity of the exemplary compounds as in examples 1 to 3 as free-radical scavengers was compared with that of conventional free-radical scavengers. For this purpose, the DPPH (1,1-diphenyl-2-picrylhydrazyl) test for the removal of free radicals was used.
DPPH was dissolved in methanol to a concentration of 100 μmol/l. A series of dilutions of the exemplary compounds, vitamin C, α-tocopherol and dibutylhydroxytoluene were prepared in methanol. Methanol served as the control. 2500 μl of the DPPH solution were mixed with 500 μl of each test solution and the decrease in absorption at 515 nm was read until the decrease was less than 2% per hour. The activity of the test substances as free-radical scavengers was calculated according to the following equation:
Activity as free-radical scavenger (%)=100−(absorption of the test compounds)/(absorption of the control)×100.
The activity as free-radical scavenger (%) in a series of dilutions of test compounds was used to calculate, for each test compound, the effective relative concentration EC50 (based on the starting concentration of DPPH, EC=c (test compound)/c(DPPH)) of a test compound at which 50% of the free radical DPPH had been removed.

[2] = Accelerated autoxidation of lipids by air (Rancimat apparatus), antioxidative index; assay type: physicochemical; details: AOI=IP(with test solution)/IP(control sample); squalene purified over alumina, stabilized with 1 ppm α-tocopherol; dry air 20 l/h
Description: The activity of the exemplary compounds as in examples 1 to 3 as antioxidants was compared with that of conventional antioxidants. The test system used was the accelerated autoxidation of lipids by air with or without antioxidant using the Rancimat apparatus (Rancimat is a registered trademark of Metrohm AG, Herisau, Switzerland).
The exemplary compounds, vitamin C, α-tocopherol and dibutylhydroxytoluene were dissolved in methanol or acetone, and 100 μl of each test solution were added to a 3 g preprepared oil sample. In a control sample, only solvent was added. A constant stream of dry air (20 l/h) was bubbled through the heated oil sample which contained the test solution, and the volatile oxidation products (predominantly short-chain fatty acids such as formic acid or acetic acid) were collected in a receiver containing water. The conductivity of this aqueous solution was continuously measured and documented. The oxidation of (unsaturated) fats proceeds only very slowly for some time and then suddenly increases. The time to the increase is referred to as the induction period (IP).
The following equation was used to calculate the antioxidative index (AOI):
AOI=IP(with test solution)/IP(control sample).
The results for the experiment at […] in squalene that has been purified over alumina grade N and stabilized with 1 ppm of α-tocopherol are given in table 2: […]

| SMILES | EC50 (effective relative concentration at which 50% of the free radical DPPH had been removed) [1] [mol/mol] | AOI in squalene at 80° C. with 0.005% of test substance [2] |
| --- | --- | --- |
| CCCCCCNC(=O)C(O)c1ccc(O)c(O)c1 (stereo not drawn) [Example 3, 2-(3,4-Dihydroxyphenyl)-N-n-hexyl-2-hydroxyacetamide] | 0.12 | 55 |
| O=C(NC1CCCCC1)C(O)c1ccc(O)c(O)c1 (stereo not drawn) [Example 2, N-Cyclohexyl-2-(3,4-dihydroxyphenyl)-2-hydroxyacetamide] | 0.11 | 43 |
| O=C1O[C@H]([C@@H](O)CO)C(O)=C1O [Vitamin C] | 0.27 | 0.7 |
| Cc1c(C)c2c(c(C)c1O)CC[C@@](C)(CCC[C@H](C)CCC[C@H](C)CCCC(C)C)O2 [α-Tocopherol] | 0.25 | 39 |
| Cc1cc(C(C)(C)C)c(O)c(C(C)(C)C)c1 [Dibutylhydroxytoluene] | 0.24 | 38 |
| CCCCC(CC)CNC(=O)C(O)c1ccc(O)c(O)c1 (stereo not drawn) [Example 1, 2-(3,4-Dihydroxyphenyl)-N-(2-ethylhexyl)-2-hydroxyacetamide] | 0.12 | 69 |
